From ChEMBL document CHEMBL3875160, “Structure-activity relationship study of peptidomimetic aldehydes as enterovirus 71 3C protease inhibitors” (Eur J Med Chem, 2016) come the findings set out here.

The IC50 is the concentration at which inhibition is half-maximal. Lower therefore signals inhibition by little substance. One may read the Ki as the dissociation constant of the complex between target and ligand, obtained from inhibition or displacement. Higher therefore signals a looser hold on the target. By CC50 is commonly meant the concentration that lowers cell viability or growth by half. Broadly, the EC50 is the concentration giving half of the maximal effect. Low values mean higher potency in that assay, high ones lower potency in that assay.

Data set [1] is described as follows: Inhibition of EV71 protease 3C expressed in Escherichia coli BL21 using substrate NMA-IEALFQGPPK(DNP)FR preincubated for 30 mins followed by substrate addition measured after 2 hrs. On the set-up: species or system Enterovirus A71.
Data set [2] can be described thus: Cytotoxicity against human rhabdomyosarcoma cells assessed as decrease in cell viability after 24 hrs by WST-1 assay. The format is toxicity, cell-based.
The next data set has as its system Enterovirus A71. In words: Antiviral activity against EV71 FY pseudotype virus infected in human rhabdomyosarcoma cells after 24 hrs by bright-glo luciferase reporter gene assay. The data set is classed as functional. The note with it: Enterovirus A. A general note: In a reporter assay the amount or activity of a reporter protein is the signal.

In data set [1], `O=C[C@H](C[C@@H]1CCCNC1=O)NC(=O)[C@H](Cc1ccccc1)NC(=O)/C=C/c1ccccc1` registered an IC50 of 540 nM and a Ki of 370 nM. Also, the CC50 at 24 h in data set [2] was more than 100000 nM.

Take `Cc1cc(C(=O)N[C@@H](Cc2ccc(F)cc2)C(=O)N[C@H](C=O)C[C@@H]2CCCNC2=O)no1`: in data set [1], the IC50 amounted to 100 nM and the affinity corresponds to a Ki of 70 nM. Further, in data set [2], the CC50 at 24 h is more than 100000 nM.

In data set [1], `O=C[C@H](C[C@@H]1CCCNC1=O)NC(=O)[C@H](Cc1ccc(F)cc1)NC(=O)/C=C/c1ccc(F)cc1` gave an IC50 of 470 nM and a Ki of 320 nM. In the data set on Enterovirus A71, the midpoint of the response, the EC50, lay at 260 nM. The CC50 at 24 h in data set [2] was more than 100000 nM.

`O=C[C@H](C[C@@H]1CCCNC1=O)NC(=O)[C@H](Cc1ccc(F)cc1)NC(=O)/C=C/c1ccccc1`: in data set [1], half-maximal inhibition (IC50) was put at 440 nM and the Ki amounted to 300 nM. The same compound showed an EC50 with Enterovirus A71 of 200 nM. Besides, the CC50 at 24 h in data set [2] is more than 100000 nM.

On to `O=C[C@H](C[C@@H]1CCCNC1=O)NC(=O)[C@H](Cc1ccccc1)NC(=O)Cc1ccccc1`, for which, in data set [1], 700 nM corresponded to half-maximal inhibition (IC50) and the Ki was found to be 480 nM. In the data set with Enterovirus A71, this compound displayed an EC50 of 540 nM. In data set [2], the CC50 at 24 h is more than 100000 nM.

On to `COc1cc(/C=C/C(=O)N[C@@H](Cc2ccccc2)C(=O)N[C@H](C=O)C[C@@H]2CCCNC2=O)cc(OC)c1OC`, for which, in data set [1], the IC50 is 7270 nM and the Ki was determined as 4970 nM. In addition, the EC50 in the data set with Enterovirus A71 came out at 6100 nM. For the same compound, the CC50 at 24 h in data set [2] is more than 100000 nM.

In data set [1], `CCCC(=O)N[C@@H](Cc1ccccc1)C(=O)N[C@H](C=O)C[C@@H]1CCCNC1=O` showed an IC50 of 7680 nM and a Ki of 5250 nM. In addition, the EC50 with Enterovirus A71 came to 4060 nM. Further, the CC50 at 24 h in data set [2] was more than 100000 nM.

Take `O=C[C@H](C[C@@H]1CCCNC1=O)NC(=O)[C@H](CC1CCCCC1)NC(=O)/C=C/c1ccccc1`: in data set [1], it took 1190 nM to reach half-maximal inhibition (IC50) and affinity was put at a Ki of 810 nM. Further, the EC50 with Enterovirus A71 amounted to 1040 nM. The CC50 at 24 h in data set [2] was more than 100000 nM.

Take `O=C[C@H](C[C@@H]1CCCNC1=O)NC(=O)[C@H](Cc1ccccc1)NC(=O)c1ccco1`: in data set [1], the IC50 is 1100 nM and the Ki came out at 750 nM. The EC50 in the data set with Enterovirus A71 worked out at 850 nM. Also, the CC50 at 24 h in data set [2] is more than 100000 nM.

In data set [1], `O=C[C@H](C[C@@H]1CCCNC1=O)NC(=O)[C@H](Cc1ccccc1)NC(=O)c1ccc(-c2ccccc2)cc1` gave an IC50 of 1930 nM and a Ki of 1320 nM. Moreover, the EC50 in the data set with Enterovirus A71 came to 910 nM. The cytotoxic concentration (CC50) at 24 h in data set [2] was more than 100000 nM.

Turning to `O=C[C@H](C[C@@H]1CCCNC1=O)NC(=O)[C@H](Cc1ccccc1)NC(=O)/C=C/c1ccc(F)cc1`, in data set [1], the IC50 was 590 nM and the affinity, expressed as Ki, was 400 nM. In the data set on Enterovirus A71, this compound had an EC50 of 320 nM. The CC50 at 24 h in data set [2] was more than 100000 nM.

Take `CC(C)[C@H](NC(=O)/C=C/c1ccccc1)C(=O)N[C@H](C=O)C[C@@H]1CCCNC1=O`: in data set [1], the midpoint of inhibition, the IC50, lay at 5680 nM and the Ki is 3880 nM. In the data set on Enterovirus A71, this compound registered an EC50 of 16700 nM. For the same compound, the CC50 at 24 h in data set [2] is more than 100000 nM.

As for `O=C[C@H](C[C@@H]1CCCNC1=O)NC(=O)[C@H](Cc1ccccc1)NC(=O)c1ccncc1`, in data set [1], the midpoint of inhibition, the IC50, lay at 1420 nM and the Ki was 970 nM. The compound further gave an EC50 in the data set on Enterovirus A71 of 8600 nM. Also, in data set [2], the CC50 at 24 h is more than 100000 nM.

In data set [1], `COc1ccc(/C=C/C(=O)N[C@@H](Cc2ccccc2)C(=O)N[C@H](C=O)C[C@@H]2CCCNC2=O)cc1OC` yielded an IC50 of 1580 nM and a Ki of 1080 nM. In addition, the EC50 with Enterovirus A71 was 1380 nM. Further, the CC50 at 24 h in data set [2] is more than 100000 nM.

In the case of `CCCCCC(=O)N[C@@H](Cc1ccccc1)C(=O)N[C@H](C=O)C[C@@H]1CCCNC1=O`, in data set [1], the half-maximal inhibitory concentration (IC50) came to 13600 nM and the affinity, expressed as Ki, was 9270 nM. Also, the EC50 with Enterovirus A71 is 6450 nM. Further, the CC50 at 24 h in data set [2] was more than 100000 nM.

In data set [1], `COc1ccc(/C=C/C(=O)N[C@@H](Cc2ccc(F)cc2)C(=O)N[C@H](C=O)C[C@@H]2CCCNC2=O)cc1` had an IC50 of 410 nM and a Ki of 280 nM. Besides, in the data set with Enterovirus A71, a half-maximal effect (EC50) was put at 180 nM. In data set [2], the cytotoxic concentration (CC50) at 24 h is more than 100000 nM.

In data set [1], `O=C[C@H](C[C@@H]1CCCNC1=O)NC(=O)[C@H](Cc1ccccc1)NC(=O)c1cccs1` came in with an IC50 of 420 nM and a Ki of 290 nM. The EC50 in the data set on Enterovirus A71 is 210 nM. In addition, the CC50 at 24 h in data set [2] is more than 100000 nM.

Take `O=C[C@H](C[C@@H]1CCCNC1=O)NC(=O)[C@H](Cc1ccccc1)NC(=O)CCc1ccccc1`: in data set [1], inhibition was half-maximal at 750 nM (IC50) and the Ki stood at 510 nM. In the data set with Enterovirus A71, this compound yielded an EC50 of 570 nM. Besides, in data set [2], the CC50 at 24 h was more than 100000 nM.

In data set [1], `O=C[C@H](C[C@@H]1CCCNC1=O)NC(=O)[C@H](Cc1ccc(F)cc1)NC(=O)c1cccs1` registered an IC50 of 290 nM and a Ki of 200 nM. It took 160 nM to reach a half-maximal effect in the data set with Enterovirus A71 (EC50). Moreover, the CC50 at 24 h in data set [2] is more than 100000 nM.

Consider `COc1ccc(/C=C/C(=O)N[C@@H](Cc2ccccc2)C(=O)N[C@H](C=O)C[C@@H]2CCCNC2=O)cc1`, for which, in data set [1], the IC50 was 490 nM and affinity was put at a Ki of 330 nM. Further, a half-maximal effect in the data set on Enterovirus A71 (EC50) was put at 230 nM. Moreover, in data set [2], the CC50 at 24 h is more than 100000 nM.

In data set [1], `CC(C)C[C@H](NC(=O)/C=C/c1ccccc1)C(=O)N[C@H](C=O)C[C@@H]1CCCNC1=O` yielded an IC50 of 2780 nM and an inhibitory constant (Ki) of 1900 nM. This compound yielded an EC50 with Enterovirus A71 of 2360 nM. Besides, the CC50 at 24 h in data set [2] was more than 100000 nM.

Take `O=C[C@H](C[C@@H]1CCCNC1=O)NC(=O)[C@H](Cc1ccccc1)NC(=O)c1cccnc1`: in data set [1], the IC50 was 440 nM and the inhibition constant (Ki) is 300 nM. In addition, the EC50 in the data set on Enterovirus A71 came to 3550 nM. Further, the CC50 at 24 h in data set [2] was more than 100000 nM.

In data set [1], `Cc1cc(C(=O)N[C@@H](Cc2ccccc2)C(=O)N[C@H](C=O)C[C@@H]2CCCNC2=O)no1` displayed an IC50 of 220 nM and a Ki of 220 nM. Moreover, a half-maximal effect in the data set with Enterovirus A71 (EC50) was put at 180 nM. For the same compound, the CC50 at 24 h in data set [2] was more than 100000 nM.

In data set [1], `O=C[C@H](C[C@@H]1CCCNC1=O)NC(=O)[C@H](Cc1ccccc1)NC(=O)c1ccccc1` yielded an IC50 of 550 nM and a Ki of 380 nM. In addition, in the data set on Enterovirus A71, it took 380 nM to reach a half-maximal effect (EC50). Besides, the CC50 at 24 h in data set [2] is more than 100000 nM.
